Assay [1] relates to interferon regulatory factor (IRF) pathway in THP-1 dual cells. Description: THP-1 Dual reporter assay, IRF pathway (luciferase). It is filed as cell-based. The conditions noted are these: Homo sapiens, THP1-Dual; 18 h stimulation, luminescence; read-out: THP1 Dual EC50 (μM) IRF. In short, it runs like this: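 After 18 h stimulation with STING agonist, culture medium was sampled. IRF activity was read as luminescence of ISG54/ISRE-driven luciferase right after adding reagent; NF-κB activity as absorbance at 630 or 655 nm of SEAP (IFN-β minimal promoter with NF-κB elements) after 1 or 2 h at 37° C.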
(In general: In a reporter assay the amount or activity of a reporter protein is the signal.)

Assay [2] relates to NF-κB pathway in THP-1 dual cells. Description: THP-1 Dual reporter assay, NF-κB pathway (SEAP). The conditions noted are these: Homo sapiens, THP1-Dual; 18 h stimulation, absorbance at 630 or 655 nm; read-out: THP1 Dual EC50 (μM) NFkB. Type of assay: cell-based. Put shortly:
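Compounds (STING agonists) stimulated THP-1 dual cells for 18 h; the cells carry an ISG54 promoter/ISRE-driven luciferase (IRF) and an IFN-β minimal promoter/NF-κB element-driven SEAP. Luciferase in conditioned medium was read by luminescence immediately; SEAP by absorbance at 630 or 655 nm after 1 or 2 h at 37° C.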

In another assay the target is human STING (Homo sapiens, UniProt Q86WV6). Description: Fluorescence Thermal Shift assay (binding to STING). The conditions noted are these: STING 0.1 mg/mL, SyproOrange, 25 to 99° C. As to the method: Compounds, constructs and conjugates of the present invention were tested for binding to human STING in Fluorescence Thermal Shift assay. STING was preincubated with the compounds for 20 minutes in 50 mM Hepes, 150 mM NaCl, pH 7.5 in 15 or 16 μl volume, following by adding 4 μl of SyproOrange dye dilution (ThermoFisher, cat no. S-6651). Final STING concentration was 0.1 mg/mL. Thermal unfolding was performed in Real-Time PCR QuantStudio 6 Flex System (Applied Biosystems), from 25 to 99° C., with continuous ramp mode and ramp rate 0.033° C./s. The data were analyzed using Protein Thermal Shift Software (ThermoFisher).

Where a name gives a salt, the structure may show the parent alone.

human STING, sequence (Q86WV6 whole entry H232R): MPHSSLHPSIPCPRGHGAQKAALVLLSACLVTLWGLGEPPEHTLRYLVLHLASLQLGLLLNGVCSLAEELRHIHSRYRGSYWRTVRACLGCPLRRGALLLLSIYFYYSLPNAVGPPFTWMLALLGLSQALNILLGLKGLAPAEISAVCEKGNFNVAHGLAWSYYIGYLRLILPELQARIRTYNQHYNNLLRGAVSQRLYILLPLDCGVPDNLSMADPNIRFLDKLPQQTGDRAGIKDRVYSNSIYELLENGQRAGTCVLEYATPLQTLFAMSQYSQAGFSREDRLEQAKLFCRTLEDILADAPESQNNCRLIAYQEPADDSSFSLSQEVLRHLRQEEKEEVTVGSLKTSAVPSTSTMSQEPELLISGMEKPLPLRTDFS

As to `COCCn1cc(CN(Cc2ccnc(C)c2)[C@H]2CCCN(c3ccc(N)nc3)C2)c(=O)c2ccccc21.Cl` [Example 21, 3-({[(3S)-1-(6-aminopyridin-3-yl)piperidin-3-yl][(2-methylpyridin-4-yl)methyl]amino}methyl)-1-(2-methoxyethyl)-1,4-dihydroquinolin-4-one hydrochloride], the EC50 in assay [1] and in assay [2] was below 1 µM throughout. Besides, the “hSTING FTS binding assay (ΔT C. °)” value at human STING is on record as “+++ (+++=ΔTm ≥20° C.)”.

As for `CNCCOc1cc2c(cc1F)c(=O)c(CN(Cc1ccnc(C)c1)[C@H]1CCCN(c3ccc(C)nc3)C1)cn2C1CC1.Cl` [Example 11, 1-Cyclopropyl-6-fluoro-7-[2-(methylamino)ethoxy]-3-({[(3S)-1-(6-methylpyridin-3-yl)piperidin-3-yl][(2-methylpyridin-4-yl)methyl]amino}methyl)-1,4-dihydroquinolin-4-one hydrochloride], the EC50 in assay [1] and in assay [2] was below 1 µM in each case. The “hSTING FTS binding assay (ΔT C. °)” value at human STING is given as “+++ (+++=ΔTm ≥20° C.)”.

For the compound `CN[C@H]1CCN(c2cc3c(cc2F)c(=O)c(CN(Cc2ccnc(C)c2)[C@H]2CCCN(c4ccc(C)nc4)C2)cn3C2CC2)C1.Cl` [Example 58, 1-cyclopropyl-6-fluoro-7-[(3S)-3-(methylamino)pyrrolidin-1-yl]-3-({[(3S)-1-(6-methylpyridin-3-yl)piperidin-3-yl][(2-methylpyridin-4-yl)methyl]amino}methyl)-1,4-dihydroquinolin-4-one hydrochloride], the EC50 in assay [1] and in assay [2] was below 1 µM throughout. Besides, the “hSTING FTS binding assay (ΔT C. °)” value at human STING is listed as “+++ (+++=ΔTm ≥20° C.)”.

For the compound `CN[C@@H]1CCN(c2cc3c(cc2F)c(=O)c(CN(Cc2ccnc(C)c2)[C@H]2CCCN(c4ccc(C)nc4)C2)cn3C2CC2)C1.Cl` [Example 55, 1-Cyclopropyl-6-fluoro-7-[(3R)-3-(methylamino)pyrrolidin-1-yl]-3-({[(3S)-1-(6-methylpyridin-3-yl)piperidin-3-yl][(2-methylpyridin-4-yl)methyl]amino}methyl)-1,4-dihydroquinolin-4-one hydrochloride], the EC50 in assay [1] and in assay [2] was below 1 µM in each case. The “hSTING FTS binding assay (ΔT C. °)” value at human STING was “+++ (+++=ΔTm ≥20° C.)”.

As to `Cc1ccc(N2CCC[C@H](N(Cc3ccnc(C)c3)Cc3cn(C4CC4)c4cc(N)c(F)cc4c3=O)C2)cn1` [Example 7, 7-Amino-1-cyclopropyl-6-fluoro-3-({[(3S)-1-(6-methylpyridin-3-yl)piperidin-3-yl][(2-methylpyridin-4-yl)methyl]amino}methyl)-1,4-dihydroquinolin-4-one], the EC50 in assay [1] and in assay [2] was below 1 µM throughout. The “hSTING FTS binding assay (ΔT C. °)” value at human STING is on record as “+++ (+++=ΔTm ≥20° C.)”.

As for `Cc1ccc(N2CCC[C@H](N(Cc3ccnc(C)c3)Cc3cn(C4CC4)c4cc(N5CCC6NCCC6C5)c(F)cc4c3=O)C2)cn1` (stereo partly drawn) [Example 68, 1-cyclopropyl-6-fluoro-3-({[(3S)-1-(6-methylpyridin-3-yl)piperidin-3-yl][(2-methylpyridin-4-yl)methyl]amino}methyl)-7-{octahydro-1H-pyrrolo[3,2-c]pyridin-5-yl}-1,4-dihydroquinolin-4-one], the EC50 in assay [1] and in assay [2] was below 1 µM each time. Moreover, the “hSTING FTS binding assay (ΔT C. °)” value at human STING was “+++ (+++=ΔTm ≥20° C.)”.

In the case of `Cc1ccc(N2CCC[C@H](N(Cc3ccnc(C)c3)Cc3cn(C4CC4)c4cc(N5CC[C@@H](N)C(F)(F)C5)c(F)cc4c3=O)C2)cn1.Cl` (single isomer, unassigned) [Example 56], the “hSTING FTS binding assay (ΔT C. °)” value on human STING was “+++ (+++=ΔTm ≥20° C.)”.

Take `Cc1ccc(N2CCC[C@H](N(Cc3ccnc(C)c3)Cc3cn(C4CC4)c4cc(N5CC[C@H](CN)C5)c(F)cc4c3=O)C2)cn1` [Example 15, 7-[(3R)-3-(Aminomethyl)pyrrolidin-1-yl]-1-cyclopropyl-6-fluoro-3-({[(3S)-1-(6-methylpyridin-3-yl)piperidin-3-yl][(2-methylpyridin-4-yl)methyl]amino}methyl)-1,4-dihydroquinolin-4-one hydrochloride]: the EC50 in assay [1] and in assay [2] was below 1 µM throughout. Also, on human STING, the “hSTING FTS binding assay (ΔT C. °)” value is listed as “+++ (+++=ΔTm ≥20° C.)”.

As for `Cc1cc(CN(Cc2cn(C(C)C)c3cc(F)c(F)cc3c2=O)[C@H]2CCCN(c3ccc(N)nc3)C2)ccn1.Cl` [Example 24, 3-({[(3)-1-(6-aminopyridin-3-yl)piperidin-3-yl][(2-methylpyridin-4-yl)methyl]amino}methyl)-6,7-difluoro-1-(propan-2-yl)-1,4-dihydroquinolin-4-one hydrochloride], on human STING, the “hSTING FTS binding assay (ΔT C. °)” value is recorded as “+++ (+++=ΔTm ≥20° C.)”.

On to `Cc1ccc(N2CCC[C@H](N(Cc3ccnc(C)c3)Cc3cn(C4CC4)c4cc(NC(=O)CN)c(F)cc4c3=O)C2)cn1` [Example 25, 2-amino-N-[1-cyclopropyl-6-fluoro-3-({[(3S)-1-(6-methylpyridin-3-yl)piperidin-3-yl][(2-methylpyridin-4-yl)methyl]amino}methyl)-4-oxo-1,4-dihydroquinolin-7-yl]acetamide], for which, at human STING, the “hSTING FTS binding assay (ΔT C. °)” value was “+++ (+++=ΔTm ≥20° C.)”.

As for `Cc1ccc(N2CCC[C@H](N(Cc3ccnc(C)c3)Cc3cn(C4CC4)c4cc(OCCN(C)C(=O)COCCOCCN)c(F)cc4c3=O)C2)cn1` [Example 11A, 2-[2-(2-aminoethoxy)ethoxy]-N-(2-{[1-cyclopropyl-6-fluoro-3-({[(3S)-1-(6-methylpyridin-3-yl)piperidin-3-yl][(2-methylpyridin-4-yl)methyl]amino}methyl)-4-oxo-1,4-dihydroquinolin-7-yl]oxy}ethyl)-N-methylacetamide], the EC50 in assay [1] and in assay [2] was 1 to 10 µM in each case.

Regarding `Cc1cc(CN(Cc2cn(C3CC3)c3cc(Cl)c(F)cc3c2=O)[C@H]2CCCN(c3ccc(C(=O)O)nc3)C2)ccn1` [Example 102], the EC50 in assay [1] and in assay [2] was 1 to 10 µM in each case.

Turning to `C#CCOCCOCCOCCOCCOCCC(=O)Nc1ccc(CNC(=O)O[C@H]2CCCN(c3cc4c(cc3F)c(=O)c(CN(Cc3ccnc(C)c3)[C@H]3CCCN(c5ccc(C)nc5)C3)cn4C3CC3)C2)cc1` [Example 31B, (3S)-1-[1-cyclopropyl-6-fluoro-3-({[(3S)-1-(6-methylpyridin-3-yl)piperidin-3-yl][(2-methylpyridin-4-yl)methyl]amino}methyl)-4-oxo-1,4-dihydroquinolin-7-yl]piperidin-3-yl N-{[4-(4,7,10,13,16-pentaoxanonadec-18-ynamido)phenyl]methyl}carbamate], the EC50 in assay [1] and in assay [2] was below 1 µM throughout.

Regarding `Cc1cc(CN(Cc2cn(C3CC3)c3cc(OCCO)c(F)cc3c2=O)[C@H]2CCCN(c3cncc(F)c3)C2)ccn1` [Example 90, 1-cyclopropyl-6-fluoro-3-({[(3S)-1-(5-fluoropyridin-3-yl)piperidin-3-yl][(2-methylpyridin-4-yl)methyl]amino}methyl)-7-(2-hydroxyethoxy)-1,4-dihydroquinolin-4-one hydrochloride], the EC50 in assay [1] and in assay [2] was below 1 µM throughout.

(Values after US12643879B2, “Functionalized heterocyclic compounds as modulators of stimulator of interferon genes (STING)” (RYVU THERAPEUTICS S.A., priority 2019, dated 2026).)
